Source: ChEMBL document CHEMBL3860063, “New potently bioactive alkaloids from Crinum erubescens” (Bioorg Med Chem, 2016)

What was measured:
[1] = Antiproliferative activity against human A2780 cells measured after 2 days by AlamarBlue assay; format: functional, cell-based; details: A2780, 48 h
[2] = tested on: Plasmodium falciparum; assay: Antiplasmodial activity against chloroquine/mefloquine-resistant Plasmodium falciparum Dd2 measured after 72 hrs by SYBR Green1-based fluorescence assay; format: functional; details: Dd2, 72 h

| SMILES | IC50 [1] [nM] | IC50 [2] [nM] |
| --- | --- | --- |
| CO[C@@H]1[C@@H](OC)[C@H](O[C@@H]2CC(=O)[C@@H]3CCN(Cc4cc5c(cc43)OCO5)C(=O)[C@H]2O)O[C@H](CO)[C@H]1OC | 16.4 | 180 |
| CO[C@@H]1[C@@H](OC)[C@H](O[C@@H]2CC(=O)[C@@H]3CCN(Cc4cc5c(cc43)OCO5)C(=O)[C@H]2O)O[C@H](C)[C@H]1OC | 28 | 260 |
| CO[C@H]1[C@@H]2OCOCO[C@H]2[C@H](O[C@@H]2CC(=O)[C@@H]3CCN(Cc4cc5c(cc43)OCO5)C(=O)[C@H]2O)O[C@@H]1C | 25 | 26 |
| CO[C@H]1[C@@H]2OCOCO[C@H]2[C@H](O[C@@H]2CC(=O)[C@@H]3CCN(Cc4cc5c(cc43)OCO5)C(=O)[C@H]2O)O[C@@H]1CO | 11.1 | 30 |
| C[C@@H]1CC[C@H]2[C@@H](C)C(=O)O[C@@H]3O[C@@]4(C)CC[C@@H]1[C@]32OO4 [ARTEMISININ] |  | 6 |
